Laboratory results reported in patent US12077503B2, “Substituted cyclic amides and their use as herbicides” (FMC CORPORATION, priority 2015, dated 2024).

Columns and labels:
Format in all cases: in vivo
Kochia (Kochia scoparia) [1] = experiment: Test A preemergence; details: Bassia scoparia, pre-emergence, 240 h, 0 to 100 scale (0 no effect, 100 complete control), read-out: Plant response rating, Kochia; for pest or weed control at 500 g/ha: 500 g ai/ha, preemergence; for pest or weed control at 125 g/ha: Preemergence, 125 g ai/ha
Method in brief: (§1)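 Each rating is a visual injury score from 0 to 100 given about 10 d after treatment, judged against untreated controls kept alongside in the greenhouse. In loam soil–sand blend, seeds got a preemergence directed soil spray, while postemergence plants were 2 to 10 cm tall at spraying.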

[2] = test system: barnyardgrass (Echinochloa crus-galli); experiment: Test A preemergence; details: Echinochloa crus-galli, pre-emergence, 240 h, 0 to 100 scale (0 no effect, 100 complete control), read-out: Plant response rating, Barnyardgrass; for pest or weed control at 500 g/ha: 500 g ai/ha, preemergence; for pest or weed control at 125 g/ha: Preemergence, 125 g ai/ha
Method in brief: as §1

[3] = test system: giant foxtail (Setaria faberii); experiment: Test A preemergence; details: Setaria faberi, pre-emergence, 240 h, 0 to 100 scale (0 no effect, 100 complete control), read-out: Plant response rating, Foxtail, Giant; for pest or weed control at 500 g/ha: 500 g ai/ha, preemergence; for pest or weed control at 125 g/ha: Preemergence, 125 g ai/ha
Method in brief: as §1

[4] = test system: ragweed (common ragweed, Ambrosia elatior); experiment: Test A preemergence; details: Ambrosia artemisiifolia, pre-emergence, 240 h, 0 to 100 scale (0 no effect, 100 complete control), read-out: Plant response rating, Ragweed; for pest or weed control at 500 g/ha: 500 g ai/ha, preemergence; for pest or weed control at 125 g/ha: Preemergence, 125 g ai/ha
Method in brief: as §1

[5] = test system: ryegrass, Italian (Italian ryegrass, Lolium multiflorum); experiment: Test A preemergence; details: Lolium multiflorum, pre-emergence, 240 h, 0 to 100 scale (0 no effect, 100 complete control), read-out: Plant response rating, Ryegrass, Italian; for pest or weed control at 500 g/ha: 500 g ai/ha, preemergence; for pest or weed control at 125 g/ha: Preemergence, 125 g ai/ha
Method in brief: as §1

[6] = test system: Galium (catchweed bedstraw, Galium aparine); experiment: Test A postemergence; details: Galium, post-emergence, 240 h, Postemergence; for pest or weed control at 125 g/ha: 125 g ai/ha, visual rating about 10 d after treatment, read-out: Galium plant response rating (0 to 100 scale); for pest or weed control at 500 g/ha: 500 g ai/ha, visual injury, 0 to 100 scale (0 no effect, 100 complete control), approx. 10 d, read-out: Plant response rating, Galium
Method in brief: as §1

Kochia (Kochia scoparia) [7] = experiment: Test A postemergence; details: Bassia scoparia, post-emergence, 240 h, Postemergence; for pest or weed control at 125 g/ha: 125 g ai/ha, visual rating about 10 d after treatment, read-out: Kochia plant response rating (0 to 100 scale); for pest or weed control at 500 g/ha: 500 g ai/ha, visual injury, 0 to 100 scale (0 no effect, 100 complete control), approx. 10 d, read-out: Plant response rating, Kochia
Method in brief: as §1

[8] = test system: barnyardgrass (Echinochloa crus-galli); experiment: Test A postemergence; details: Echinochloa crus-galli, post-emergence, 240 h, Postemergence; for pest or weed control at 125 g/ha: 125 g ai/ha, visual rating about 10 d after treatment, read-out: Barnyardgrass plant response rating (0 to 100 scale, 0 no effect, 100 complete control); for pest or weed control at 500 g/ha: 500 g ai/ha, visual injury, 0 to 100 scale (0 no effect, 100 complete control), approx. 10 d, read-out: Plant response rating, Barnyardgrass
Method in brief: as §1

[9] = test system: blackgrass (Alopecurus myosuroides); experiment: Test A postemergence; details: Alopecurus myosuroides, post-emergence, 240 h, Postemergence; for pest or weed control at 125 g/ha: 125 g ai/ha, visual rating about 10 d after treatment, read-out: Blackgrass plant response rating (0 to 100 scale); for pest or weed control at 500 g/ha: 500 g ai/ha, visual injury, 0 to 100 scale (0 no effect, 100 complete control), approx. 10 d, read-out: Plant response rating, Blackgrass
Method in brief: as §1

corn (Zea mays) = experiment: Test A postemergence; details: Zea mays, post-emergence, 240 h, Postemergence; for plant injury at 125 g/ha: 125 g ai/ha, visual rating about 10 d after treatment, read-out: Corn plant response rating (0 to 100 scale); for Corn plant response rating (crop injury, 0 = no effect, 100 = complete kill) at 500 g/ha: 500 g ai/ha, visual injury, 0 to 100 scale (0 no effect, 100 complete control), approx. 10 d
Method in brief: as §1

[10] = test system: giant foxtail (Setaria faberii); experiment: Test A postemergence; details: Setaria faberi, post-emergence, 240 h, Postemergence; for pest or weed control at 125 g/ha: 125 g ai/ha, visual rating about 10 d after treatment, read-out: Foxtail, Giant plant response rating (0 to 100 scale); for pest or weed control at 500 g/ha: 500 g ai/ha, visual injury, 0 to 100 scale (0 no effect, 100 complete control), approx. 10 d, read-out: Plant response rating, Foxtail, Giant
Method in brief: as §1

[11] = test system: pigweed (Amaranthus retroflexus); experiment: Test A postemergence; details: Amaranthus retroflexus, post-emergence, 240 h, Postemergence; for pest or weed control at 125 g/ha: 125 g ai/ha, visual rating about 10 d after treatment, read-out: Pigweed plant response rating (0 to 100 scale); for pest or weed control at 500 g/ha: 500 g ai/ha, visual injury, 0 to 100 scale (0 no effect, 100 complete control), approx. 10 d, read-out: Plant response rating, Pigweed
Method in brief: as §1

[12] = test system: ragweed (common ragweed, Ambrosia elatior); experiment: Test A postemergence; details: Ambrosia artemisiifolia, post-emergence, 240 h, Postemergence; for pest or weed control at 125 g/ha: 125 g ai/ha, visual rating about 10 d after treatment, read-out: Ragweed plant response rating (0 to 100 scale); for pest or weed control at 500 g/ha: 500 g ai/ha, visual injury, 0 to 100 scale (0 no effect, 100 complete control), approx. 10 d, read-out: Plant response rating, Ragweed
Method in brief: as §1

[13] = test system: ryegrass, Italian (Italian ryegrass, Lolium multiflorum); experiment: Test A postemergence; details: Lolium multiflorum, post-emergence, 240 h, Postemergence; for pest or weed control at 125 g/ha: 125 g ai/ha, visual rating about 10 d after treatment, read-out: Ryegrass, Italian plant response rating (0 to 100 scale); for pest or weed control at 500 g/ha: 500 g ai/ha, visual injury, 0 to 100 scale (0 no effect, 100 complete control), approx. 10 d, read-out: Plant response rating, Ryegrass, Italian
Method in brief: as §1

[14] = test system: wheat (Triticum aestivum); experiment: Test A postemergence; details: Triticum aestivum, post-emergence, 240 h, Postemergence; for plant injury at 125 g/ha: 125 g ai/ha, visual rating about 10 d after treatment, read-out: Wheat plant response rating (0 to 100 scale); for plant injury at 500 g/ha: 500 g ai/ha, visual injury, 0 to 100 scale (0 no effect, 100 complete control), approx. 10 d, read-out: Plant response rating, Wheat
Method in brief: as §1

SMILES | pest or weed control at 500 g/ha (Kochia (Kochia scoparia) [1]) [%] | pest or weed control at 125 g/ha (Kochia (Kochia scoparia) [1]) [%] | pest or weed control at 500 g/ha [2] [%] | pest or weed control at 125 g/ha [2] [%] | pest or weed control at 500 g/ha [3] [%] | pest or weed control at 125 g/ha [3] [%] | pest or weed control at 500 g/ha [4] [%] | pest or weed control at 125 g/ha [4] [%] | pest or weed control at 500 g/ha [5] [%] | pest or weed control at 125 g/ha [5] [%] | pest or weed control at 125 g/ha [6] [%] | pest or weed control at 500 g/ha [6] [%] | pest or weed control at 125 g/ha (Kochia (Kochia scoparia) [7]) [%] | pest or weed control at 500 g/ha (Kochia (Kochia scoparia) [7]) [%] | pest or weed control at 125 g/ha [8] [%] | pest or weed control at 500 g/ha [8] [%] | pest or weed control at 125 g/ha [9] [%] | pest or weed control at 500 g/ha [9] [%] | plant injury at 125 g/ha (corn (Zea mays)) [%] | Corn plant response rating (crop injury, 0 = no effect, 100 = complete kill) at 500 g/ha (corn (Zea mays)) [%] | other results
CN1C[C@H](c2ccc(OC(F)F)cc2)[C@@H](C(=O)Nc2ccccc2F)C1=O [Compound 1371] | 90 | 80 | 100 | 90 | 90 | 90 | 80 | 70 | 50 | 0 | 70 | 70 | 50 | 80 | 80 | 90 | 40 | 60 | 40 | 90 | pest or weed control at 125 g/ha [10]: 90%; pest or weed control at 500 g/ha [10]: 90%; pest or weed control at 125 g/ha [11]: 30%; pest or weed control at 500 g/ha [11]: 60%; pest or weed control at 125 g/ha [12]: 20%; pest or weed control at 500 g/ha [12]: 60%; pest or weed control at 125 g/ha [13]: 30%; pest or weed control at 500 g/ha [13]: 50%; plant injury at 125 g/ha [14]: 10%; plant injury at 500 g/ha [14]: 60%
O=C1NC[C@H](c2cnc(C(F)(F)F)nc2)[C@H]1C(=O)Nc1cccc(F)c1F [Compound 1382] | 60 | 0 | 70 | 0 | 90 | 0 | 0 | 0 | 0 | 0 | 0 | 30 | 0 | 0 | 0 | 80 | 0 | 0 | 0 | 0 | pest or weed control at 125 g/ha [10]: 0%; pest or weed control at 500 g/ha [10]: 70%; pest or weed control at 125 g/ha [11]: 0%; pest or weed control at 500 g/ha [11]: 0%; pest or weed control at 125 g/ha [12]: 0%; pest or weed control at 500 g/ha [12]: 0%; pest or weed control at 125 g/ha [13]: 0%; pest or weed control at 500 g/ha [13]: 0%; plant injury at 125 g/ha [14]: 0%; plant injury at 500 g/ha [14]: 0%
